{"source": "ChEMBL document CHEMBL3272309", "about": "“Potential central nervous system antitumor agents. Aziridinylbenzoquinones. 1” (J Med Chem, 1976)", "key": {"[1]": {"test": "Therapeutic ratio, ratio of highest active dose to lowest active for antitumor activity against in ip dosed mouse allografted with mouse P388 cells", "type": "ADME, organism-based", "conditions": "in vivo, read-out: TI"}, "[2]": {"test": "Antitumor activity against mouse ependymoblastoma cells allografted in mouse assessed as change in body weight at 0.25 mg/kg, ip qd administered from day 1 to 5 post intracerebral tumor-implantation measured on day 5 relative to control", "type": "functional", "conditions": "route intraperitoneal"}, "[3]": {"test": "Antitumor activity against mouse ependymoblastoma cells allografted in mouse assessed as change in body weight at 2 mg/kg, ip qd administered from day 1 to 5 post intracerebral tumor-implantation measured on day 5 relative to control", "type": "functional", "conditions": "route intraperitoneal"}, "[4]": {"test": "Antitumor activity against mouse ependymoblastoma cells allografted in mouse assessed as mouse survival at 2 mg/kg, ip qd administered from day 1 to 5 post intracerebral tumor-implantation relative to control", "type": "functional", "conditions": "route intraperitoneal"}, "[5]": {"test": "Antitumor activity against mouse ependymoblastoma cells allografted in mouse assessed as change in body weight at 1 mg/kg, ip qd administered from day 1 to 5 post intracerebral tumor-implantation measured on day 5 relative to control", "type": "functional", "conditions": "route intraperitoneal"}, "[6]": {"system": "L1210", "test": "Antitumor activity against mouse L1210 cells allografted in mouse assessed as change in body weight at 0.88 mg/kg, ip qd administered from day 1 to 9 post ip tumor-implantation measured on day 5 relative to control", "type": "functional", "conditions": "route intraperitoneal"}, "[7]": {"system": "L1210", "test": "Antitumor activity against mouse L1210 cells allografted in mouse assessed as change in body weight at 3.12 mg/kg, ip qd administered from day 1 to 9 post ip tumor-implantation measured on day 5 relative to control", "type": "functional", "conditions": "route intraperitoneal"}, "[8]": {"system": "Mus musculus", "test": "Toxicity in mouse allografted with mouse ependymoblastoma cells at 4 mg/kg, ip qd administered from day 1 to 5 post intracerebral tumor-implantation", "type": "organism-based", "parameters": "dose 4 mg/kg, route intraperitoneal", "conditions": "in vivo"}, "[9]": {"system": "Lewis lung carcinoma cell line", "test": "Antitumor activity against mouse LLC cells allografted in mouse assessed as change in body weight at 4 mg/kg, ip qd administered from day 5 to 15 post sc tumor-implantation measured on day 5 relative to control", "type": "functional", "conditions": "route subcutaneous"}, "[10]": {"system": "P388", "test": "Antitumor activity against mouse P388 cells allografted in mouse assessed as change in body weight at 6.25 mg/kg, ip qd administered from day 1 to 9 post intracerebral tumor-implantation measured on day 5 relative to control", "type": "functional", "conditions": "route intraperitoneal"}, "[11]": {"system": "Lewis lung carcinoma cell line", "test": "Antitumor activity against mouse LLC cells allografted in mouse assessed as mouse survival at 2 mg/kg, ip qd administered from day 5 to 15 post sc tumor-implantation relative to control", "type": "functional", "conditions": "route subcutaneous"}, "[12]": {"system": "Mus musculus", "test": "Toxicity in mouse allografted with mouse L1210 cells at 12.5 mg/kg, ip qd administered from day 1 to 9 post ip tumor-implantation", "type": "organism-based", "parameters": "dose 12.5 mg/kg, route intraperitoneal", "conditions": "in vivo"}, "[13]": {"test": "Aqueous solubility of the compound", "type": "physicochemical"}, "[14]": {"test": "Antitumor activity against mouse ependymoblastoma cells allografted in mouse assessed as mouse survival at 1 mg/kg, ip qd administered from day 1 to 5 post intracerebral tumor-implantation relative to control", "type": "functional", "conditions": "route intraperitoneal"}, "[15]": {"system": "Lewis lung carcinoma cell line", "test": "Antitumor activity against mouse LLC cells allografted in mouse assessed as change in body weight at 1 mg/kg, ip qd administered from day 5 to 15 post sc tumor-implantation measured on day 5 relative to control", "type": "functional", "conditions": "route subcutaneous"}, "[16]": {"system": "Mus musculus", "test": "Toxicity in mouse allografted with mouse P388 cells at 6.25 mg/kg, ip qd administered from day 1 to 9 post intracerebral tumor-implantation", "type": "organism-based", "parameters": "dose 6.25 mg/kg, route intraperitoneal", "conditions": "in vivo"}, "[17]": {"system": "L1210", "test": "Antitumor activity against mouse L1210 cells allografted in mouse assessed as change in body weight at 12.5 mg/kg, ip qd administered from day 1 to 9 post ip tumor-implantation measured on day 5 relative to control", "type": "functional", "conditions": "route intraperitoneal"}, "[18]": {"system": "Mus musculus", "test": "Antitumor activity against mouse ependymoblastoma cells allografted in mouse assessed as cure rate at 2 mg/kg, ip qd administered from day 1 to 5 post intracerebral tumor-implantation measured on day 99", "type": "functional, organism-based", "parameters": "dose 2 mg/kg"}, "[19]": {"test": "Therapeutic ratio, ratio of highest active dose to lowest active for antitumor activity against in ip dosed mouse allografted with mouse B16 cells", "type": "ADME, organism-based", "conditions": "in vivo, read-out: TI"}, "[20]": {"system": "P388", "test": "Antitumor activity against mouse P388 cells allografted in mouse assessed as change in body weight at 1.56 mg/kg, ip qd administered from day 1 to 9 post intracerebral tumor-implantation measured on day 5 relative to control", "type": "functional", "conditions": "route intraperitoneal"}, "[21]": {"system": "L1210", "test": "Antitumor activity against mouse L1210 cells allografted in mouse assessed as change in body weight at 6.25 mg/kg, ip qd administered from day 1 to 9 post ip tumor-implantation measured on day 5 relative to control", "type": "functional", "conditions": "route intraperitoneal"}, "[22]": {"system": "P388", "test": "Antitumor activity against mouse P388 cells allografted in mouse assessed as mouse survival at 0.39 mg/kg, ip qd administered from day 1 to 9 post intracerebral tumor-implantation relative to control", "type": "functional", "conditions": "route intraperitoneal"}, "[23]": {"test": "Antitumor activity against mouse ependymoblastoma cells allografted in mouse assessed as change in body weight at 4 mg/kg, ip qd administered from day 1 to 5 post intracerebral tumor-implantation measured on day 5 relative to control", "type": "functional", "conditions": "route intraperitoneal"}, "[24]": {"system": "P388", "test": "Antitumor activity against mouse P388 cells allografted in mouse assessed as mouse survival at 3.12 mg/kg, ip qd administered from day 1 to 9 post intracerebral tumor-implantation relative to control", "type": "functional", "conditions": "route intraperitoneal"}, "[25]": {"system": "L1210", "test": "Antitumor activity against mouse L1210 cells allografted in mouse assessed as mouse survival at 6.25 mg/kg, ip qd administered from day 1 to 9 post intracerebral tumor-implantation relative to control", "type": "functional", "conditions": "route intraperitoneal"}, "[26]": {"system": "L1210", "test": "Antitumor activity against mouse L1210 cells allografted in mouse assessed as change in body weight at 4.6 mg/kg, ip qd administered from day 1 to 9 post ip tumor-implantation measured on day 5 relative to control", "type": "functional", "conditions": "route intraperitoneal"}, "[27]": {"system": "P388", "test": "Antitumor activity against mouse P388 cells allografted in mouse assessed as change in body weight at 6.25 mg/kg, ip qd administered from day 1 to 9 post ip tumor-implantation measured on day 5 relative to control", "type": "functional", "conditions": "route intraperitoneal"}, "[28]": {"system": "L1210", "test": "Antitumor activity against mouse L1210 cells allografted in mouse assessed as mouse survival at 2 mg/kg, ip qd administered from day 1 to 9 post ip tumor-implantation relative to control", "type": "functional", "conditions": "route intraperitoneal"}, "[29]": {"system": "L1210", "test": "Antitumor activity against mouse L1210 cells allografted in mouse assessed as change in body weight at 1.56 mg/kg, ip qd administered from day 1 to 9 post intracerebral tumor-implantation measured on day 5 relative to control", "type": "functional", "conditions": "route intraperitoneal"}, "[30]": {"system": "L1210", "test": "Antitumor activity against mouse L1210 cells allografted in mouse assessed as mouse survival at 3.12 mg/kg, ip qd administered from day 1 to 9 post intracerebral tumor-implantation relative to control", "type": "functional", "conditions": "route intraperitoneal"}, "[31]": {"system": "P388", "test": "Antitumor activity against mouse P388 cells allografted in mouse assessed as mouse survival at 0.78 mg/kg, ip qd administered from day 1 to 9 post intracerebral tumor-implantation relative to control", "type": "functional", "conditions": "route intraperitoneal"}, "[32]": {"system": "Lewis lung carcinoma cell line", "test": "Antitumor activity against mouse LLC cells allografted in mouse assessed as change in body weight at 2 mg/kg, ip qd administered from day 5 to 15 post sc tumor-implantation measured on day 5 relative to control", "type": "functional", "conditions": "route subcutaneous"}, "[33]": {"system": "L1210", "test": "Antitumor activity against mouse L1210 cells allografted in mouse assessed as mouse survival at 4.6 mg/kg, ip qd administered from day 1 to 9 post ip tumor-implantation relative to control", "type": "functional", "conditions": "route intraperitoneal"}, "[34]": {"system": "B16", "test": "Antitumor activity against mouse B16 cells allografted in mouse assessed as change in body weight at 3.12 mg/kg, ip qd administered from day 1 to 9 post ip tumor-implantation measured on day 5 relative to control", "type": "functional", "conditions": "route intraperitoneal"}}, "note": "Calls of active or inactive are those of the source. The rule behind the calls is not given here."}
{"smiles": "CCOC(=O)NC1=C(N2CC2)C(=O)C(NC(=O)OCC)=C(N2CC2)C1=O", "note": "[DIAZIQUONE]", "values": [{"measurement": "selectivity ratio", "setting": "[1]", "result": 3}, {"measurement": "Activity", "setting": "[2]", "result": -1.5, "unit": "g"}, {"measurement": "Activity", "setting": "[3]", "result": -2.7, "unit": "g"}, {"measurement": "T/C", "setting": "[4]", "result": 271, "unit": "%"}, {"measurement": "Activity", "setting": "[5]", "result": -2.1, "unit": "g"}, {"measurement": "Activity", "setting": "[6]", "result": -1.4, "unit": "g"}, {"measurement": "Activity", "setting": "[7]", "result": -4.1, "unit": "g"}, {"measurement": "Activity", "setting": "[8]", "result": "Toxic"}, {"measurement": "Activity", "setting": "[9]", "result": -0.1, "unit": "g"}, {"measurement": "Activity", "setting": "[10]", "result": -2.8, "unit": "g"}, {"measurement": "T/C", "setting": "[11]", "result": 134, "unit": "%"}, {"measurement": "Activity", "setting": "[12]", "result": "Toxic"}, {"measurement": "solubility", "setting": "[13]", "result": 500, "unit": "µg/mL"}, {"measurement": "T/C", "setting": "[14]", "result": 226, "unit": "%"}, {"measurement": "Activity", "setting": "[15]", "result": -0.1, "unit": "g"}, {"measurement": "Activity", "setting": "[16]", "result": "Toxic"}, {"measurement": "Activity", "setting": "[17]", "result": -5, "unit": "g"}, {"measurement": "Activity", "setting": "[18]", "result": "Active"}, {"measurement": "selectivity ratio", "setting": "[19]", "result": 3}, {"measurement": "Activity", "setting": "[20]", "result": -1.1, "unit": "g"}, {"measurement": "Activity", "setting": "[21]", "result": -4.1, "unit": "g"}, {"measurement": "T/C", "setting": "[22]", "result": 102, "unit": "%"}, {"measurement": "Activity", "setting": "[23]", "result": -3.9, "unit": "g"}, {"measurement": "T/C", "setting": "[24]", "result": 131, "unit": "%"}, {"measurement": "T/C", "setting": "[25]", "result": 103, "unit": "%"}, {"measurement": "Activity", "setting": "[26]", "result": -4.6, "unit": "g"}, {"measurement": "Activity", "setting": "[27]", "result": -6.1, "unit": "g"}, {"measurement": "T/C", "setting": "[28]", "result": 201, "unit": "%"}, {"measurement": "Activity", "setting": "[29]", "result": -0.6, "unit": "g"}, {"measurement": "T/C", "setting": "[30]", "result": 179, "unit": "%"}, {"measurement": "T/C", "setting": "[31]", "result": 125, "unit": "%"}, {"measurement": "Activity", "setting": "[32]", "result": 0.3, "unit": "g"}, {"measurement": "T/C", "setting": "[33]", "result": 98, "unit": "%"}, {"measurement": "Activity", "setting": "[34]", "result": -2.7, "unit": "g"}]}
